# Test system: healthy participants
# Test: Phase 1 Part A single ascending dose (SAD) and FE/pH cohort: safety, blood pressure
# Format: in vivo, human
# Settings: for Mean SBP: in mmHg (unit assumed); for Maximum of mean (±SD) reduction in DBP from baseline / Maximum of mean (±SD) reduction in SBP from baseline / Time of maximum mean DBP reduction / Time of maximum mean SBP reduction: within 12 h post dose
# Description: The study was performed in 3 parts in 112 healthy male and female participants, including 24 Japanese participants. Female participants were to be not of childbearing potential. The present study was designed to evaluate the safety and tolerability, PK, and exploratory PD of an oral suspension of Compound A. Parts A and B (Cohort B1 only) enrolled healthy participants and was conducted at a site in The Netherlands and Part B (Cohort B2 to B5) enrolled healthy non-Japanese participants and was conducted at a site in the United Kingdom (UK). Part C enrolled healthy Japanese participants and was conducted at the same site in the UK.
# Part A was an SAD study in a planned number of 6 sequential dose escalation cohorts (3, 10, 30, 100, 150, or 250 mg) of 8 healthy participants (6 active+2 placebo) each, under fasted conditions. Eligible participants in Part A (excluding those in Cohort A7 [food effect (FE)/pH cohort]) received a single administration of study drug (Compound A or placebo) under fasted conditions. In Cohort A1 to Cohort A6, sentinel dosing was employed (1 active+1 placebo, followed after 48 hours by the remaining participants of the cohort [5 active+1 placebo]). […] In addition to the 6 ascending dose cohorts, a cohort of 6 healthy participants (Cohort A7; 6 active, 100 mg Compound A) was included to assess the effect of food and pH on the bioavailability of Compound A in a 3-period, open-label, fixed-sequence, crossover design (FE/pH cohort).
# Physical examinations, vital sign measurements (including orthostasis testing in Cohort A6, Cohort B3 to B5, and C1 to C3 at selected time points), 12-lead electrocardiogram (ECG), and clinical laboratory evaluations were performed at selected times throughout the study. In addition, Holter monitoring was performed for the first 24 hours post dose on Day 1 in Part A (not in FE/pH cohort), and also for the first 24 hours post dose on Day 1 and Day 14 in Parts B and C. Participants were closely monitored for adverse events (AEs). Blood samples were collected for up to 14 days (follow-up visit) after (last) study drug administration for PK analysis. In addition, blood and urine were collected for exploratory biomarker assessments and for biobanking of samples for potential analyses. Urine was collected for potential PK analysis for up to 96 hours after a single dose of Compound A or placebo was administered in the SAD part, and for up to 24 hours after the first (morning) dose of study drug on Day 1 and for up to 24 hours after the last (morning) dose of study drug on Day 14 in the MAD parts.
# [1] = 100 mg Fasted + Famotidine, D 1 2 h
# [2] = 100 mg Fasted + Famotidine, D 1 4 h
# [3] = 100 mg Fasted + Famotidine, D 1 8 h
# [4] = 100 mg Fasted + Famotidine, D 2 24 h
# [5] = 100 mg fasted + famotidine (A7)
smiles,measurement,setting,value
"CCCN(C)C(=O)OCc1c(-c2ccc(O[C@H]3CCC[C@H](C(=O)O)C3)c(C)n2)nnn1C [Compound A, (1S,3S)-3-((2-methyl-6-(1-methyl-5-(((methyl(propyl)carbamoyl)-oxy)methyl)-1H-1,2,3-triazol-4-yl)pyridin-3-yl)oxy)cyclohexane-1-carboxylic acid]",Mean DBP,[1],67.2 mmHg
same,Mean SBP,[1],111.3
same,Mean DBP,[2],65.3 mmHg
same,Mean SBP,[2],106.5
same,Mean DBP,[3],63.2 mmHg
same,Mean SBP,[3],105.0
same,Mean DBP,[4],71.7 mmHg
same,Mean SBP,[4],118.7
same,Mean DBP,"100 mg Fasted, D 1 2 h",67.2 mmHg
same,Mean SBP,"100 mg Fasted, D 1 2 h",107.5
same,Mean DBP,"100 mg Fasted, D 1 4 h",64.2 mmHg
same,Mean SBP,"100 mg Fasted, D 1 4 h",103.8
same,Mean DBP,"100 mg Fasted, D 1 8 h",63 mmHg
same,Mean SBP,"100 mg Fasted, D 1 8 h",98.0
same,Mean DBP,"100 mg Fasted, D 2 24 h",69.3 mmHg
same,Mean SBP,"100 mg Fasted, D 2 24 h",115.2
same,Mean DBP,"100 mg Fed, D 1 2 h",57.2 mmHg
same,Mean SBP,"100 mg Fed, D 1 2 h",100.5
same,Mean DBP,"100 mg Fed, D 1 4 h",58.2 mmHg
same,Mean SBP,"100 mg Fed, D 1 4 h",104.2
same,Mean DBP,"100 mg Fed, D 1 8 h",58.8 mmHg
same,Mean SBP,"100 mg Fed, D 1 8 h",100.3
same,Mean DBP,"100 mg Fed, D 2 24 h",69.3 mmHg
same,Mean SBP,"100 mg Fed, D 2 24 h",112.8
same,Maximum of mean (±SD) reduction in DBP from baseline,100 mg fasted (A7),12.5 ± 7.06 mmHg
same,Maximum of mean (±SD) reduction in SBP from baseline,100 mg fasted (A7),25.8 ± 9.54 mmHg
same,Time of maximum mean DBP reduction,100 mg fasted (A7),5 h
same,Time of maximum mean SBP reduction,100 mg fasted (A7),8 h
same,Maximum of mean (±SD) reduction in DBP from baseline,[5],11.8 ± 8.40 mmHg
same,Maximum of mean (±SD) reduction in SBP from baseline,[5],19.3 ± 17.41 mmHg
same,Time of maximum mean DBP reduction,[5],6 h
same,Time of maximum mean SBP reduction,[5],6 h
same,Maximum of mean (±SD) reduction in DBP from baseline,100 mg fed (A7),12.7 ± 4.18 mmHg
same,Maximum of mean (±SD) reduction in SBP from baseline,100 mg fed (A7),18.5 ± 12.94 mmHg
same,Time of maximum mean DBP reduction,100 mg fed (A7),5 h
same,Time of maximum mean SBP reduction,100 mg fed (A7),6 h
same,Dose-limiting events,"Cohort A6, 250 mg single dose, 2 sentinel participants dosed",dose-limiting events observed in a sentinel participant
same,Maximum of mean (±SD) reduction in SBP from baseline,SAD 3 mg (A1),5.2 ± 3.43 mmHg
same,Time of maximum mean SBP reduction,SAD 3 mg (A1),2 h
same,Mean DBP,"SAD 3 mg, D 1 2 h",68.3 mmHg
same,Mean SBP,"SAD 3 mg, D 1 2 h",119.5
same,Mean DBP,"SAD 3 mg, D 1 4 h",69.5 mmHg
same,Mean SBP,"SAD 3 mg, D 1 4 h",120.3
same,Mean DBP,"SAD 3 mg, D 1 8 h",68 mmHg
same,Mean SBP,"SAD 3 mg, D 1 8 h",124.5
same,Mean DBP,"SAD 3 mg, D 2 24 h",68.7 mmHg
same,Mean SBP,"SAD 3 mg, D 2 24 h",118.8
same,Maximum of mean (±SD) reduction in DBP from baseline,SAD 10 mg (A2),8.8 ± 9.91 mmHg
same,Maximum of mean (±SD) reduction in SBP from baseline,SAD 10 mg (A2),9.5 ± 16.13 mmHg
same,Time of maximum mean DBP reduction,SAD 10 mg (A2),6 h
same,Time of maximum mean SBP reduction,SAD 10 mg (A2),8 h
same,Mean DBP,"SAD 10 mg, D 1 2 h",67.7 mmHg
same,Mean SBP,"SAD 10 mg, D 1 2 h",112.2
same,Mean DBP,"SAD 10 mg, D 1 4 h",68.7 mmHg
same,Mean SBP,"SAD 10 mg, D 1 4 h",110.2
same,Mean DBP,"SAD 10 mg, D 1 8 h",63 mmHg
same,Mean SBP,"SAD 10 mg, D 1 8 h",109.5
same,Mean DBP,"SAD 10 mg, D 2 24 h",71.7 mmHg
same,Mean SBP,"SAD 10 mg, D 2 24 h",118.5
same,Maximum of mean (±SD) reduction in DBP from baseline,SAD 30 mg (A3),6.8 ± 1.72 mmHg
same,Maximum of mean (±SD) reduction in SBP from baseline,SAD 30 mg (A3),11.7 ± 7.61 mmHg
same,Time of maximum mean DBP reduction,SAD 30 mg (A3),5 h
same,Time of maximum mean SBP reduction,SAD 30 mg (A3),4 h
same,Mean DBP,"SAD 30 mg, D 1 2 h",66.2 mmHg
same,Mean SBP,"SAD 30 mg, D 1 2 h",107.5
same,Mean DBP,"SAD 30 mg, D 1 4 h",65.2 mmHg
same,Mean SBP,"SAD 30 mg, D 1 4 h",106.0
same,Mean DBP,"SAD 30 mg, D 1 8 h",65.2 mmHg
same,Mean SBP,"SAD 30 mg, D 1 8 h",113.8
same,Mean DBP,"SAD 30 mg, D 2 24 h",71 mmHg
same,Mean SBP,"SAD 30 mg, D 2 24 h",120.2
same,Maximum of mean (±SD) reduction in DBP from baseline,SAD 100 mg (A4),9.7 ± 8.64 mmHg
same,Maximum of mean (±SD) reduction in SBP from baseline,SAD 100 mg (A4),15.5 ± 11.59 mmHg
same,Time of maximum mean DBP reduction,SAD 100 mg (A4),5 h
same,Time of maximum mean SBP reduction,SAD 100 mg (A4),2 h
same,Mean DBP,"SAD 100 mg, D 1 2 h",59 mmHg
same,Mean SBP,"SAD 100 mg, D 1 2 h",101.0
same,Mean DBP,"SAD 100 mg, D 1 4 h",58.7 mmHg
same,Mean SBP,"SAD 100 mg, D 1 4 h",101.3
same,Mean DBP,"SAD 100 mg, D 1 8 h",56.3 mmHg
same,Mean SBP,"SAD 100 mg, D 1 8 h",105.0
same,Mean DBP,"SAD 100 mg, D 2 24 h",66 mmHg
same,Mean SBP,"SAD 100 mg, D 2 24 h",114.2
same,Maximum of mean (±SD) reduction in DBP from baseline,SAD 150 mg (A5),12.7 ± 5.61 mmHg
same,Maximum of mean (±SD) reduction in SBP from baseline,SAD 150 mg (A5),16.5 ± 8.41 mmHg
same,Time of maximum mean DBP reduction,SAD 150 mg (A5),6 h
same,Time of maximum mean SBP reduction,SAD 150 mg (A5),6 h
same,Mean DBP,"SAD 150 mg, D 1 2 h",58.2 mmHg
same,Mean SBP,"SAD 150 mg, D 1 2 h",105.0
same,Mean DBP,"SAD 150 mg, D 1 4 h",56 mmHg
same,Mean SBP,"SAD 150 mg, D 1 4 h",101.5
same,Mean DBP,"SAD 150 mg, D 1 8 h",57.8 mmHg
same,Mean SBP,"SAD 150 mg, D 1 8 h",107.2
same,Mean DBP,"SAD 150 mg, D 2 24 h",66.2 mmHg
same,Mean SBP,"SAD 150 mg, D 2 24 h",114.7
same,"Effect on SBP, DBP and heart rate",SAD cohorts,"decreased SBP and DBP dose dependently, reversibly, and mostly asymptomatically with minimal effect on heart rate"
same,Safety and tolerability,single and multiple dose oral administration to healthy participants,generally safe and well tolerated

# — patent publication US20240216352A1 (priority 2022, published 2024)
